Laboratory results: PubChem BioAssay AID1745844 (Carcinogenic Potency Database (CPDB), 2022)
Active and inactive are the calls of the source. How the calls were made is not given here.

Tested on: rodent lifetime carcinogenesis bioassay, tumor incidence TD50
Experiment: carcinogenic potency in animals, long-term in vivo studies, CPDB compilation (AID 1745844)

Which results are given for `CCN(CC)C(=O)c1cccc(C)c1`?
TD50 (mouse, strain Charles River CD1, females, in feed, site: liver, lesion: hepatocellular adenoma, dosed 78 weeks, study length 78 weeks): 150000 mg/kg/day (inactive); TD50 (mouse, strain Charles River CD1, females, in feed, site: liver, lesion: hepatocellular carcinoma, dosed 78 weeks, study length 78 weeks): 87000 mg/kg/day (inactive); TD50 (mouse, strain Charles River CD1, females, in feed, site: lung, lesion: alveolar/bronchiolar adenoma, dosed 78 weeks, study length 78 weeks): 14500 mg/kg/day (inactive); TD50 (mouse, strain Charles River CD1, males, in feed, site: liver, lesion: hepatocellular adenoma, dosed 78 weeks, study length 78 weeks): 2580 mg/kg/day (inactive); TD50 (mouse, strain Charles River CD1, males, in feed, site: liver, lesion: hepatocellular carcinoma, dosed 78 weeks, study length 78 weeks): 11500 mg/kg/day (inactive); carcinogen call (mouse, strain Charles River CD1, males, in feed, site: lung, lesion: alveolar/bronchiolar adenoma, dosed 78 weeks, study length 78 weeks): negative (inactive); TD50 (rat, strain Charles River CD (Sprague-Dawley), females, in feed, site: liver, lesion: hepatocellular adenoma, dosed 104 weeks, study length 104 weeks): 16700 mg/kg/day (inactive); carcinogen call (rat, strain Charles River CD (Sprague-Dawley), females, in feed, site: liver, lesion: hepatocellular carcinoma, dosed 104 weeks, study length 104 weeks): negative (inactive); TD50 (rat, strain Charles River CD (Sprague-Dawley), males, in feed, site: liver, lesion: hepatocellular adenoma, dosed 104 weeks, study length 104 weeks): 3390 mg/kg/day (inactive); carcinogen call (rat, strain Charles River CD (Sprague-Dawley), males, in feed, site: liver, lesion: hepatocellular carcinoma, dosed 104 weeks, study length 104 weeks): negative (inactive)

With `CC(=O)[O-].CC(=O)[O-].CC(=O)[O-].[Cr+3]` as the compound, how does the carcinogen call (mouse, strain Charles River CD1, females, in drinking water, site: any site (literature study), lesion: one or several types, types not named, dosed 145 weeks, study length 145 weeks) read?
Its carcinogen call is “negative (inactive)”.

And the carcinogen call (mouse, strain Charles River CD1, females, in drinking water, site: lung, lesion: one or several types, types not named, dosed 145 weeks, study length 145 weeks)?
Its carcinogen call is “negative (inactive)”.

What about the carcinogen call (mouse, strain Charles River CD1, males, in drinking water, site: any site (literature study), lesion: one or several types, types not named, dosed 139 weeks, study length 139 weeks) of the same compound?
Its carcinogen call is “negative (inactive)”.

And the carcinogen call (mouse, strain Charles River CD1, males, in drinking water, site: lung, lesion: one or several types, types not named, dosed 139 weeks, study length 139 weeks)?
The carcinogen call was “negative (inactive)”.

And the TD50 (rat, strain Long-Evans BLU:(LE), both sexes, in drinking water, site: any site (literature study), lesion: malignant tumor, dosed 182 weeks, study length 182 weeks)?
The TD50 was 7.62 mg/kg/day (inactive).

What about the TD50 (rat, strain Long-Evans BLU:(LE), both sexes, in drinking water, site: any site (literature study), lesion: one or several types, types not named, dosed 182 weeks, study length 182 weeks) of the same compound?
The TD50 was 1.61 mg/kg/day (inactive).

And the carcinogen call (rat, strain Long-Evans BLU:(LE), both sexes, in drinking water, site: liver, lesion: one or several types, types not named, dosed 182 weeks, study length 182 weeks)?
The carcinogen call was “negative (inactive)”.

For `O=NN1C[C@H](O)C[C@H]1C(=O)O`, which TD50 (rat, strain MRC, females, in drinking water, site: any site (literature study), lesion: several types, types named in the paper, dosed 75 weeks, study length 104 weeks) is on record?
Its TD50 is 3.84 mg/kg/day (inactive).

What about the carcinogen call (rat, strain MRC, males, in drinking water, site: any site (literature study), lesion: several types, types named in the paper, dosed 75 weeks, study length 104 weeks) of the same compound?
Its carcinogen call is “negative (inactive)”.

How did the carcinogen call (mouse, strain B6C3F1, females, in feed, site: any site (literature study), lesion: several types, types named in the paper, dosed 103 weeks, study length 105 weeks) turn out when `CO[C@H]1[C@@H](O)[C@@H](CO)OC(OC2C3CO[C@H]2[C@H](O)C(C)O3)[C@@H]1O` (stereo partly specified) was run?
Its carcinogen call is “negative (inactive)”.

What about the TD50 (mouse, strain B6C3F1, males, in feed, site: any site (literature study), lesion: several types, types named in the paper, dosed 103 weeks, study length 105 weeks) of the same compound?
Its TD50 is 54900 mg/kg/day.

What about the TD50 (mouse, strain B6C3F1, males, in feed, site: liver, lesion: hepatocellular adenoma + hepatocellular carcinoma + neoplastic nodule, dosed 103 weeks, study length 105 weeks) of the same compound?
Its TD50 is 33100 mg/kg/day.

What about the TD50 (mouse, strain B6C3F1, males, in feed, site: liver, lesion: hepatocellular adenoma, dosed 103 weeks, study length 105 weeks) of the same compound?
Its TD50 is 18800 mg/kg/day (inactive).

And the TD50 (mouse, strain B6C3F1, males, in feed, site: lung, lesion: alveolar/bronchiolar adenoma + alveolar/bronchiolar carcinoma, dosed 103 weeks, study length 105 weeks)?
The TD50 was 102000 mg/kg/day.

What about the TD50 (rat, strain Fischer 344, females, in feed, site: adrenal gland, lesion: cortical adenoma, dosed 103 weeks, study length 105 weeks) of the same compound?
Its TD50 is 25800 mg/kg/day (inactive).

And the TD50 (rat, strain Fischer 344, males, in feed, site: any site (literature study), lesion: several types, types named in the paper, dosed 103 weeks, study length 105 weeks)?
The TD50 was 39300 mg/kg/day (inactive).

What about the TD50 (rat, strain Fischer 344, males, in feed, site: liver, lesion: hepatocellular adenoma + hepatocellular carcinoma + neoplastic nodule, dosed 103 weeks, study length 105 weeks) of the same compound?
The TD50 was 25900 mg/kg/day.

How did the TD50 (rat, strain F344/DuCrj, females, in feed, site: any site (literature study), lesion: several types, types named in the paper, dosed 106 weeks, study length 106 weeks) turn out when `CCN(CC)c1ccc2c(-c3ccc(S(=O)(=O)O)cc3S(=O)(=O)[O-])c3ccc(=[N+](CC)CC)cc-3oc2c1` was run?
The TD50 was 4100 mg/kg/day (inactive).

And the carcinogen call (rat, strain F344/DuCrj, females, in feed, site: liver, lesion: one or several types, types not named, dosed 106 weeks, study length 106 weeks)?
Its carcinogen call is “negative (inactive)”.

And the TD50 (rat, strain F344/DuCrj, males, in feed, site: any site (literature study), lesion: several types, types named in the paper, dosed 106 weeks, study length 106 weeks)?
The TD50 was 2350 mg/kg/day (inactive).

And the carcinogen call (rat, strain F344/DuCrj, males, in feed, site: liver, lesion: neoplastic nodule, dosed 106 weeks, study length 106 weeks)?
Its carcinogen call is “negative (inactive)”.

With `CN(N=O)C(N)=O` as the compound, how does the TD50 (monkey, strain Cynomolgus [Macaca fascicularis], both sexes, in feed, site: any site (literature study), lesion: benign tumor, dosed 928 weeks, study length 1135 weeks) read?
The TD50 was 19.1 mg/kg/day.

What about the TD50 (monkey, strain Cynomolgus [Macaca fascicularis], both sexes, in feed, site: any site (literature study), lesion: malignant tumor, dosed 928 weeks, study length 1135 weeks) of the same compound?
Its TD50 is 4 mg/kg/day.

What about the TD50 (monkey, strain Cynomolgus [Macaca fascicularis], both sexes, in feed, site: any site (literature study), lesion: several types, types named in the paper, dosed 928 weeks, study length 1135 weeks) of the same compound?
Its TD50 is 2.64 mg/kg/day.

And the TD50 (monkey, strain Cynomolgus [Macaca fascicularis], both sexes, in feed, site: colon, lesion: leiomyosarcoma, dosed 928 weeks, study length 1135 weeks)?
The TD50 was 34.5 mg/kg/day.

And the TD50 (monkey, strain Cynomolgus [Macaca fascicularis], both sexes, in feed, site: esophagus, lesion: several types, types named in the paper, dosed 928 weeks, study length 1135 weeks)?
Its TD50 is 7.71 mg/kg/day.

And the TD50 (monkey, strain Cynomolgus [Macaca fascicularis], both sexes, in feed, site: esophagus, lesion: squamous-cell carcinoma, dosed 928 weeks, study length 1135 weeks)?
Its TD50 is 10.5 mg/kg/day.

What about the TD50 (monkey, strain Cynomolgus [Macaca fascicularis], both sexes, in feed, site: esophagus, lesion: squamous-cell papilloma, dosed 928 weeks, study length 1135 weeks) of the same compound?
Its TD50 is 29.2 mg/kg/day.

What about the TD50 (monkey, strain Cynomolgus [Macaca fascicularis], both sexes, in feed, site: heart, lesion: rhabdomyoblastoma, dosed 928 weeks, study length 1135 weeks) of the same compound?
Its TD50 is 66.3 mg/kg/day.

And the TD50 (monkey, strain Cynomolgus [Macaca fascicularis], both sexes, in feed, site: oral cavity, lesion: several types, types named in the paper, dosed 928 weeks, study length 1135 weeks)?
The TD50 was 2.65 mg/kg/day.

What about the TD50 (monkey, strain Cynomolgus [Macaca fascicularis], both sexes, in feed, site: palate, soft, lesion: squamous-cell carcinoma, dosed 928 weeks, study length 1135 weeks) of the same compound?
Its TD50 is 7.95 mg/kg/day.

What about the TD50 (monkey, strain Cynomolgus [Macaca fascicularis], both sexes, in feed, site: pharynx, lesion: squamous-cell carcinoma, dosed 928 weeks, study length 1135 weeks) of the same compound?
The TD50 was 82.2 mg/kg/day.

And the TD50 (monkey, strain Cynomolgus [Macaca fascicularis], both sexes, in feed, site: skull, lesion: rhabdomyosarcoma, dosed 928 weeks, study length 1135 weeks)?
Its TD50 is 23.9 mg/kg/day.

What about the TD50 (monkey, strain Cynomolgus [Macaca fascicularis], both sexes, in feed, site: stomach, lesion: adenocarcinoma, dosed 928 weeks, study length 1135 weeks) of the same compound?
The TD50 was 66.3 mg/kg/day.

And the TD50 (monkey, strain Cynomolgus [Macaca fascicularis], both sexes, in feed, site: tongue, lesion: squamous-cell papilloma, dosed 928 weeks, study length 1135 weeks)?
Its TD50 is 7.95 mg/kg/day.

And the TD50 (monkey, strain Cynomolgus [Macaca fascicularis], both sexes, in feed, site: upper gastrointestinal tract, lesion: squamous-cell carcinoma, dosed 928 weeks, study length 1135 weeks)?
Its TD50 is 4.52 mg/kg/day.

And the TD50 (monkey, strain Rhesus [Macaca mulatta], both sexes, in feed, site: any site (literature study), lesion: malignant tumor, dosed 928 weeks, study length 1139 weeks)?
Its TD50 is 6.75 mg/kg/day.

And the TD50 (monkey, strain Rhesus [Macaca mulatta], both sexes, in feed, site: cheek pouch, lesion: squamous-cell carcinoma, dosed 928 weeks, study length 1139 weeks)?
Its TD50 is 95.6 mg/kg/day.

And the TD50 (monkey, strain Rhesus [Macaca mulatta], both sexes, in feed, site: epiglottis, lesion: squamous-cell carcinoma, dosed 928 weeks, study length 1139 weeks)?
Its TD50 is 42.8 mg/kg/day.

What about the TD50 (monkey, strain Rhesus [Macaca mulatta], both sexes, in feed, site: esophagus, lesion: squamous-cell carcinoma, dosed 928 weeks, study length 1139 weeks) of the same compound?
The TD50 was 8.2 mg/kg/day.

What about the TD50 (monkey, strain Rhesus [Macaca mulatta], both sexes, in feed, site: gingiva, lesion: squamous-cell carcinoma, dosed 928 weeks, study length 1139 weeks) of the same compound?
The TD50 was 62.6 mg/kg/day.

What about the TD50 (monkey, strain Rhesus [Macaca mulatta], both sexes, in feed, site: larynx, lesion: squamous-cell carcinoma, dosed 928 weeks, study length 1139 weeks) of the same compound?
Its TD50 is 95.6 mg/kg/day.

What about the TD50 (monkey, strain Rhesus [Macaca mulatta], both sexes, in feed, site: oral cavity, lesion: several types, types named in the paper, dosed 928 weeks, study length 1139 weeks) of the same compound?
Its TD50 is 15.7 mg/kg/day.

What about the TD50 (monkey, strain Rhesus [Macaca mulatta], both sexes, in feed, site: palate, soft, lesion: squamous-cell carcinoma, dosed 928 weeks, study length 1139 weeks) of the same compound?
Its TD50 is 102 mg/kg/day.

And the TD50 (monkey, strain Rhesus [Macaca mulatta], both sexes, in feed, site: pharynx, lesion: squamous-cell carcinoma, dosed 928 weeks, study length 1139 weeks)?
Its TD50 is 44.2 mg/kg/day.

And the TD50 (monkey, strain Rhesus [Macaca mulatta], both sexes, in feed, site: stomach, lesion: adenocarcinoma, dosed 928 weeks, study length 1139 weeks)?
Its TD50 is 42.8 mg/kg/day.

What about the TD50 (monkey, strain Rhesus [Macaca mulatta], both sexes, in feed, site: tongue, lesion: squamous-cell carcinoma, dosed 928 weeks, study length 1139 weeks) of the same compound?
Its TD50 is 72.9 mg/kg/day.

What about the TD50 (monkey, strain Rhesus [Macaca mulatta], both sexes, in feed, site: upper gastrointestinal tract, lesion: squamous-cell carcinoma, dosed 928 weeks, study length 1139 weeks) of the same compound?
Its TD50 is 7.18 mg/kg/day.

What about the TD50 (mouse, strain C3H (MTV+), males, in drinking water, site: liver, lesion: neoplastic nodule, dosed 30 weeks, study length 54 weeks) of the same compound?
The TD50 was 2.53 mg/kg/day.

And the TD50 (mouse, strain C3H (MTV+), males, in drinking water, site: lung, lesion: adenoma, dosed 30 weeks, study length 54 weeks)?
Its TD50 is 0.794 mg/kg/day.

And the TD50 (mouse, strain C3H (MTV+), males, in drinking water, site: spleen, lesion: hemangioendothelial sarcoma, dosed 30 weeks, study length 54 weeks)?
Its TD50 is 1.23 mg/kg/day.

And the TD50 (mouse, strain C3H (MTV+), males, in drinking water, site: stomach, glandular, lesion: adenocarcinoma, dosed 30 weeks, study length 54 weeks)?
The TD50 was 6.19 mg/kg/day.

And the TD50 (rat, strain Fischer 344, males, by gavage, site: forestomach, lesion: one or several types, types not named, dosed 28 weeks, study length 104 weeks)?
The TD50 was 0.0927 mg/kg/day.

What about the TD50 (rat, strain Fischer 344, males, by gavage, site: liver, lesion: one or several types, types not named, dosed 28 weeks, study length 104 weeks) of the same compound?
Its TD50 is 11.6 mg/kg/day.

And the TD50 (rat, strain Fischer 344, males, by gavage, site: lung, lesion: several types, types named in the paper, dosed 28 weeks, study length 104 weeks)?
The TD50 was 0.357 mg/kg/day.

And the TD50 (rat, strain Fischer 344, males, by gavage, site: nervous system, lesion: several types, types named in the paper, dosed 28 weeks, study length 104 weeks)?
Its TD50 is 2.03 mg/kg/day.
